# Reference: patent US5475132A, “Antifungal agents based on amides containing a phenyl group” (Rhone-Poulenc Agrochimie, priority 1988, dated 1995)
# Tested on: Phytophthora citrophthora
# Experiment: Example B3: action on phytopathogenic soil fungi, growth on agar in Petri dishes
# Type: cell-based
# Conditions: 120 h, 30 ppm, agar medium, 22° C., 5 days, read-out: inhibition of the development of the fungus
row,SMILES,inhibition at 30 ppm [%]
1,CCN(CC)C(=O)c1cnc(-c2ccc(Br)cc2)nc1-c1ccc(OC)c(OC)c1 [Compound 430],≥ 80
2,COc1ccc(-c2nc(-c3ccc(C#N)cc3)ccc2C(=O)N2CCOCC2)cc1OC [Compound 382],≥ 80
3,COc1ccc(-c2c(C(=O)N3CCOCC3)sc3c(F)cccc23)cc1OC [Compound 122],≥ 80
4,COc1ccc(-c2nc(-c3ccc(Cl)cc3)ccc2C(=O)N(C)OC)cc1OC [Compound 394],≥ 80
5,COc1ccc(-c2ccc(C(=O)N3CCOCC3)c(-c3ccc(OC)c(OC)c3)n2)cc1 [Compound 389],≥ 80
6,COc1ccc(-c2nc(-c3cccs3)ccc2C(=O)N2CCOCC2)cc1OC [Compound 3113],≥ 80
7,CCN(CC)C(=O)c1ccc(Br)cc1-c1ccc(OC)c(OC)c1 [Compound 205],≥ 80
8,"COc1ccc(-c2cc(-c3ccc(F)cc3)ccc2C(=O)N2CCOCC2)cc1OC [Compound 201, 2-(3,4-Dimethoxyphenyl)-4-(4-fluorophenyl)-1-morpholinocarbonylbenzene]",≥ 80
9,COCC1CCCN1C(=O)c1sc2ccccc2c1-c1ccc(OC)c(OC)c1 (centres unmarked) [Compound 163],≥ 80
10,CCN(C)C(=O)c1ccc(-c2ccc(F)cc2)cc1-c1ccc2c(c1)OCO2 [Compound 228],≥ 80
11,COc1ccc(-c2c(C(=O)N3CCCC3)sc3ccccc23)cc1OC [Compound 154],≥ 80
12,COc1ccc(-c2nc(-c3ccc(Cl)cc3)ccc2C(=O)N(C)CCO)cc1OC [Compound 383],≥ 80
13,COc1ccc(-c2nc(-c3ccc(Cl)cc3)ccc2C(=O)N(C)Cc2ccco2)cc1OC [Compound 378],≥ 80
14,"COc1ccc(-c2nc(-c3ccccc3)ccc2C(=O)N2CCOCC2)cc1OC [Compound 301, N-[2-(3,4-dimathoxyphenyl)-6-phenylnicotinoyl]morpholine]",≥ 80
15,COc1ccc(-c2c(C(=O)N3CCOCC3)oc3ccccc23)cc1OC [Compound 137],≥ 80
16,"COc1ccc(-c2c(C(=O)N3CCOCC3)sc3ccc(I)cc23)cc1OC [Compound 101, 2-(4-morpholinocarbonyl)-5-iodo-3-(3,4-dimethoxyphenyl)benzothiophene]",≥ 80
17,COCCN(C)C(=O)c1cnc(-c2ccccc2)nc1-c1ccc(OC)c(OC)c1 [Compound 416],≥ 80
18,COc1ccc(-c2nc(SCc3ccc(Cl)cc3)ncc2C(=O)N2CCOCC2)cc1OC [Compound 435],≥ 80
19,"C=C(C)c1ccc2sc(C(=O)N3CCOCC3)c(-c3ccc(OC)c(OC)c3)c2c1 [Compound 105, 2-(4-Morpholinocarbonyl)-5-(propen-2-yl)-3-(3,4-dimethoxyphenyl)benzothiophene]",≥ 80
20,COc1ccc(-c2nc(-c3ccc(Cl)cc3)ccc2C(=O)N(C)CC2CCCO2)cc1OC (centres unmarked) [Compound 381],≥ 80
21,CCN(C)C(=O)c1ccc(-c2ccsc2)nc1-c1ccc(OC)c(OC)c1 [Compound 3118],≥ 80
22,CCN(C)C(=O)c1ccc(-c2ccc(C)cc2)cc1-c1ccc(OC)c(OC)c1 [Compound 215],≥ 80
23,CCCN(C)C(=O)c1ccc(-c2ccccc2)nc1-c1ccc(OC)c(OC)c1 [Compound 365],≥ 80
24,COc1ccc(-c2cc(-c3ccc(C)cc3)ccc2C(=O)N(C)CCO)cc1OC [Compound 216],≥ 80
25,COCCN(C)C(=O)c1ccc(Cl)cc1-c1ccc(OC)c(OC)c1 [Compound 210],≥ 80

row,SMILES,inhibition at 30 ppm [%]
1,COc1ccc(-c2nc(-c3ccc(Br)cc3)ccc2C(=O)N(C)CCOC(C)=O)cc1OC [Compound 366],≥ 80
2,COc1ccc(-c2c(C(=O)N3CCOCC3)sc3c(Br)cccc23)cc1OC [Compound 123],≥ 80
3,COc1ccc(-c2c(C(=O)N3CCOCC3)sc3ccc(-c4ccsc4)cc23)cc1OC [Compound 134],≥ 80
4,COc1ccc(-c2c(C(=O)N3CCOCC3)sc3ccccc23)cc1OC [Compound 118],≥ 80
5,COc1ccc(C2=C(C(=O)N3CCOCC3)Cc3cc(OC)c(OC)cc32)cc1 [Compound 149],≥ 80
6,COc1ccc(-c2c(C(=O)N3CCOCC3)sc3c(C)cccc23)cc1OC [Compound 127],≥ 80
7,COc1ccc(-c2nc(C=C(C)C)ccc2C(=O)N2CCOCC2)cc1OC [Compound 3111],≥ 80
8,COc1ccc(-c2c(C(=O)N3CCOCC3)sc3ccc(Cl)cc23)cc1OC [Compound 113],≥ 80
9,CCN(C)C(=O)c1sc2ccccc2c1-c1ccc(OC)c(OC)c1 [Compound 150],≥ 80
10,"COc1ccc(-c2nc(-c3ccc(Cl)cc3)ncc2C(=O)N2CCOCC2)cc1OC [Compound 407, 2-(4-Chlorophenyl)-4-(3,4-dimethoxyphenyl)-5-morpholinocarbonylpyrimidine]",≥ 80
11,CCN(CC)C(=O)c1ccc(Cl)cc1-c1ccc(OC)c(OC)c1 [Compound 211],≥ 80
12,COCCN(C)C(=O)c1ccc(Br)cc1-c1ccc(OC)c(OC)c1 [Compound 204],≥ 80
13,COc1ccc(-c2nc(-c3ccco3)ccc2C(=O)N2CCOCC2)cc1OC [Compound 3116],≥ 80
14,COc1ccc(-c2c(C(=O)N3CCOCC3)sc3cccc(Cl)c23)cc1OC [Compound 128],≥ 80
15,COc1ccc(-c2c(C(=O)N3CCOCC3)oc3ccc([N+](=O)[O-])cc23)cc1OC [Compound 136],≥ 80
16,"COc1ccc(C2=C(C(=O)N3CCOCC3)C(O)c3ccccc32)cc1OC (centres unmarked) [Compound 110, 1-(3,4-Dimethoxyphenyl)-2-morpholinocarbonyl-3-hydroxyindene]",≥ 80
17,COc1ccc(-c2c(C(=O)N3CCOCC3)sc3ccc(-c4ccccc4)cc23)cc1OC [Compound 135],≥ 80
18,COc1ccc(-c2c(C(=O)N3CCOCC3)n(C)c3ccc([N+](=O)[O-])cc23)cc1OC [Compound 141],≥ 80
19,COc1ccc(-c2c(C(=O)N3CCCC(OC)C3)sc3ccccc23)cc1OC (centres unmarked) [Compound 166],≥ 80
20,COc1ccc(-c2c(Br)cccc2C(=O)N2CCOCC2)cc1OC [Compound 223],≥ 80
21,COc1ccc(-c2nc(-c3ccc(C)cc3)ccc2C(=O)N2CCOCC2)cc1OC [Compound 384],≥ 80
22,CCN(CC)C(=O)c1ccc(-c2ccc(Cl)cc2)nc1-c1ccc(OC)c(OC)c1 [Compound 364],≥ 80
23,COc1ccc(-c2nc(-c3ccc(C4CC4(Cl)Cl)cc3)ccc2C(=O)N2CCOCC2)cc1OC (centres unmarked) [Compound 355],≥ 80
24,COc1ccc(-c2nc(-c3ccccc3)ccc2C(=O)N(C)C)cc1OC [Compound 370],≥ 80
25,COc1ccc(-c2nc(-c3ccc(C(C)C)cc3)ccc2C(=O)N2CCOCC2)cc1OC [Compound 356],≥ 80

row,SMILES,inhibition at 30 ppm [%]
1,COc1ccc(-c2c(C(=O)N(C)C)sc3ccccc23)cc1OC [Compound 155],≥ 80
2,COc1ccc(-c2nc(Sc3ccc(F)cc3)ncc2C(=O)N2CCOCC2)cc1OC [Compound 449],≥ 80
3,COc1ccc(-c2c(C(=O)N3CCOCC3)sc3cccc(F)c23)cc1OC [Compound 129],≥ 80
4,COc1ccc(-c2nc(-c3ccc4ccccc4c3)ccc2C(=O)N2CCOCC2)cc1OC [Compound 3115],≥ 80
5,COCCN(C)C(=O)c1sc2ccc(F)cc2c1-c1ccc(OC)c(OC)c1 [Compound 169],≥ 80
6,COc1ccc(-c2c(C(=O)N3CCOCC3)sc3cc(Cl)ccc23)cc1OC [Compound 125],≥ 80
7,Cc1ccc(-c2ccc(C(=O)N3CCOCC3)c(-c3ccc4c(c3)OCO4)c2)cc1 [Compound 231],≥ 80
8,COc1ccc(-c2nc(-c3ccc(Cl)cc3)c(C)cc2C(=O)N2CCOCC2)cc1OC [Compound 367],≥ 80
9,COc1ccc(-c2nc(-c3ccc(Cl)cc3)ccc2C(=O)N2CCOCC2)cc1OC [Compound 345],≥ 80
10,COc1ccc(-c2c(C(=O)N3CCOCC3)sc3ccc(C(F)(F)F)cc23)cc1OC [Compound 133],≥ 80
11,CCN(CC)C(=O)c1cnc(-c2ccc(Cl)c(Cl)c2)nc1-c1ccc(OC)c(OC)c1 [Compound 420],≥ 80
12,COc1ccc(-c2nc(Sc3ccc(Cl)cc3)ncc2C(=O)N2CCOCC2)cc1OC [Compound 436],≥ 80
13,COc1ccc(-c2c(C(=O)N3CCOCC3)sc3c(Cl)cccc23)cc1OC [Compound 124],≥ 80
14,CCN(C)C(=O)c1ccc(-c2ccc(Br)cc2)nc1-c1ccc(OC)c(OC)c1 [Compound 390],≥ 80
15,COc1ccc(-c2c(C(=O)N3CCOCC3)sc3c(NC(C)=O)cccc23)cc1OC [Compound 132],≥ 80
16,COc1ccc(-c2nc(-c3ccc(Cl)cc3)ccc2C(=O)N2CCCC2)cc1OC [Compound 373],≥ 80
17,COc1ccc(-c2c(C(=O)N3CCOCC3)sc3ccc(NC(C)=O)cc23)cc1OC [Compound 115],≥ 80
18,CCN(C)C(=O)c1cnc(-c2cccc(C(F)(F)F)c2)nc1-c1ccc(OC)c(OC)c1 [Compound 428],≥ 80
19,C=CCN(C)C(=O)c1ccc(-c2ccccc2)nc1-c1ccc(OC)c(OC)c1 [Compound 359],≥ 80
20,COc1ccc(-c2c(C(=O)N3CCOCC3)cc(-c3ccccc3)n2C)cc1OC [Compound 621],≥ 80
21,COc1ccc(-c2nc(Oc3ccc(F)cc3)ncc2C(=O)N2CCOCC2)cc1OC [Compound 439],≥ 80
22,COCCN(C)C(=O)c1ccc(-c2ccc(F)cc2)nc1-c1ccc(OC)c(OC)c1 [Compound 353],≥ 80
23,C=C(C)c1ccc(C(=O)N(CC)CC)c(-c2ccc(OC)c(OC)c2)c1 [Compound 214],≥ 80
24,"COc1ccc(-c2c(C(=O)N3CCOCC3)cc(-c3ccc(F)cc3)n2C)cc1OC [Compound 607, 5-(4-fluorophenyl)-2-(3,4-dimethoxyphenyl)-1-methyl-3-(morpholinocarbonyl)pyrrole]",≥ 80
